Results reported in patent publication US20200069691A1, “HETEROCYCLIC COMPOUNDS AS HIV PROTEASE INHIBITORS” (Merck Sharp & Dohme Corp., priority 2016, published 2020).

Target: T1, wild-type HIV-1 protease (Human immunodeficiency virus type 1 group M subtype B, UniProt P04585)
T1 construct: Escherichia coli expressed wild-type HIV-1 protease protein
Test: Assay for Inhibition of Microbial Expressed HIV Protease (peptide substrate cleavage, LC-MS/MS readout)
Assay type: biochemical
Details: E. coli expressed wild-type HIV-1 protease, mean of at least two independent experiments, read-out: HIV Pr Enzyme HIV1 PR IC50
Protocol: Assay for Inhibition of Microbial Expressed HIV Protease
Inhibition of Escherichia coli expressed wild-type HIV-1 protease protein was carried out with a peptide substrate [Val-Ser-Gln-Asn-(βnaphtyl)Ala-Pro-Ile-Val]. The inhibitor compound was preincubated with HIV-1 protease enzyme in assay buffer (50 mM sodium acetate, pH 5.5, 100 mM NaCl, and 0.1% BSA) for 30 minutes at room temperature. Peptide substrate was added to 400 μM in a total volume of 20 μL containing […] HIV-1 protease (final) after which the reaction was incubated for 1 hour at 30° C. […] The extent of inhibition of the reaction was determined from the peak area of the products.
Data shown in the table reflects the mean of at least two independent experiments.

| Structure (SMILES) | IC50 [nM] |
| --- | --- |
| C[C@@H](c1cccc(C(=O)N2Cc3ccccc3C2)c1)N1C(=N)NC(c2ccccc2)(c2ccccc2)C1=O [Compound 331, 3-{(1S)-1-[3-(1,3-dihydro-2H-isoindol-2-ylcarbonyl)phenyl]ethyl}-2-imino-5,5-diphenylimidazolidin-4-one] | 67.6 |
| N=C1NC(c2ccc(F)cc2)(c2ccc(F)cc2)C(=O)N1Cc1cccc(C(=O)N2Cc3nccnc3C2)c1 [Compound 200, 3-[3-(5,7-dihydro-6H-pyrrolo[3,4-b]pyrazin-6-ylcarbonyl)benzyl]-5,5-bis(4-fluorophenyl)-2-iminoimidazolidin-4-one] | 14.2 |
| N=C1N[C@](CCCC(F)(F)F)(c2ccc(F)cc2)C(=O)N1Cc1ccc(C(F)(F)F)c(C(=O)N2CCN(c3ccccc3)CC2)c1 [Compound 119, (5R)-5-(4-fluorophenyl)-2-imino-3-{3-[(4-phenylpiperazin-1-yl)carbonyl]-4-(trifluoromethyl)-benzyl}-5-(4,4,4-trifluorobutyl)-imidazolidin-4-one] | 42.1 |
| CC(C)CCC1(c2ccccc2)NC(=N)N(Cc2ccc(C(F)(F)F)c(C(=O)N3CCC3)c2)C1=O (stereo not shown) [Compound 166, 3-[3-(azetidin-1-ylcarbonyl)-4-(trifluoromethyl)benzyl]-2-imino-5-(3-methylbutyl)-5-phenylimidazolidin-4-one] | 34.9 |
| Cc1cc2c(cn1)CN(C(=O)c1cccc(CN3C(=N)NC(c4ccccc4)(c4ccccc4)C3=O)c1)C2 [Compound 214, 2-imino-3-{3-[(6-methyl-1,3-dihydro-2H-pyrrolo[3,4-c]pyridin-2-yl)carbonyl]benzyl}-5,5-diphenylimidazolidin-4-one] | 9.81 |
| N=C1N[C@](CCCC(F)(F)F)(c2ccc(F)cc2)C(=O)N1Cc1ccc(C(F)(F)F)c(C(=O)N2Cc3cnc(-c4cccc(N5CCCC5)c4)nc3C2)c1 [Compound 62, (5R)-5-(4-fluorophenyl)-2-imino-3-[3-{[2-(3-pyrrolidin-1-ylphenyl)-5,7-dihydro-6H-pyrrolo[3,4-d]pyrimidin-6-yl]carbonyl}-4-(trifluoromethyl)benzyl]-5-(4,4,4-trifluorobutyl)imidazolidin-4-one] | 6.86 |
| N=C1N[C@](CCCC(F)(F)F)(c2ccc(F)cc2)C(=O)N1Cc1ccc(C(F)(F)F)c(C(=O)N2Cc3cnc(-c4cccc(C(=O)N5CCSCC5)c4)nc3C2)c1 [Compound 67, (5R)-5-(4-fluorophenyl)-2-imino-3-[3-({2-[3-(thiomorpholin-4-ylcarbonyl)phenyl]-5,7-dihydro-6H-pyrrolo[3,4-d]pyrimidin-6-yl}carbonyl)-4-(trifluoromethyl)-benzyl]-5-(4,4,4-trifluorobutyl)-imidazolidin-4-one] | 7.87 |
| Cc1nc2c(s1)CN(C(=O)c1cccc(CN3C(=N)NC(c4ccccc4)(c4ccccc4)C3=O)c1)C2 [Compound 206, 5-({3-[(2-imino-5-oxo-4,4-diphenylimidazolidin-1-yl)methyl]phenyl}carbonyl)-2-methyl-3,4,5,6-tetrahydropyrrolo[3,4-d][1,3]thiazol-1-ium] | 8.2 |
| N=C1NC(c2ccccc2)(c2ccccc2)C(=O)N1Cc1ccc(F)c(C(=O)N2Cc3cccnc3C2)c1 [Compound 386, 3-[3-(5,7-dihydro-6H-pyrrolo[3,4-b]pyridin-6-ylcarbonyl)-4-fluorobenzyl]-2-imino-5,5-diphenylimidazolidin-4-one] | 28.2 |
| N=C1N[C@](CCCC(F)(F)F)(c2ccc(F)cc2)C(=O)N1Cc1ccc(C(F)(F)F)c(C(=O)N2Cc3cnc(NC4CCCC4)nc3C2)c1 [Compound 71, (5R)-3-[3-{[2-(cyclopentylamino)-5,7-dihydro-6H-pyrrolo[3,4-d]pyrimidin-6-yl]carbonyl}-4-(trifluoromethyl)benzyl]-5-(4-fluorophenyl)-2-imino-5-(4,4,4-trifluorobutyl)imidazolidin-4-one] | 9.19 |
| N=C1NC(c2ccccc2)(c2ccccc2)C(=O)N1Cc1cc(C(=O)N2Cc3nccnc3C2)ccn1 [Compound 399, 3-{[4-(5,7-dihydro-6H-pyrrolo[3,4-b]pyrazin-6-ylcarbonyl)pyridin-2-yl]methyl}-2-imino-5,5-diphenylimidazolidin-4-one] | 20.4 |
| CC1c2ccccc2CN1C(=O)c1cccc(CN2C(=N)NC(c3ccc(F)cc3)(c3ccc(F)cc3)C2=O)c1 (stereo not shown) [Compound 311, 5,5-bis(4-fluorophenyl)-2-imino-3-{3-[(1-methyl-1,3-dihydro-2H-isoindol-2-yl)carbonyl]benzyl} imidazolidin-4-one] | 51.8 |
| CC(C)CC[C@]1(c2ccc(F)cc2)NC(=N)N(C(CCCc2ccccc2)c2ccc(C(F)(F)F)c(C(=O)N3CCn4c(nnc4C(F)(F)F)C3)c2)C1=O (stereo partly drawn) [Compound 56, (5R)-5-(4-fluorophenyl)-2-imino-5-(3-methylbutyl)-3-{4-phenyl-1-[4-(trifluoromethyl)-3-{[3-(trifluoromethyl)-5,6-dihydro[1,2,4]-triazolo[4,3-a]pyrazin-7(8H)-yl]carbonyl}-phenyl]butyl}imidazolidin-4-one] | 6.19 |
| CC(C)CCC(c1ccc(C(F)(F)F)c(C(=O)N2CCn3c(nnc3C(F)(F)F)C2)c1)N1C(=N)N[C@](CCC(C)C)(c2ccccc2)C1=O (stereo partly drawn) [Compound 23, (5R)-2-imino-5-(3-methylbutyl)-3-{4-methyl-1-[4-(trifluoromethyl)-3-{[3-(trifluoromethyl)-5,6-dihydro[1,2,4]triazolo[4,3-a]pyrazin-7(8H)-yl]carbonyl}phenyl]pentyl}-5-phenylimidazolidin-4-one] | 2.38 |
| N=C1NC(c2ccc(F)cc2)(c2ccc(F)cc2)C(=O)N1Cc1cccc(C(=O)N2CCC(n3c(=O)[nH]c4ccccc43)CC2)c1 [Compound 338, 1-{1-[(3-{[4,4-bis(4-fluorophenyl)-2-imino-5-oxoimidazolidin-1-yl]methyl}phenyl)carbonyl]piperidin-4-yl}-1,3-dihydro-2H-benzimidazol-2-one] | 73.5 |
| N=C1N[C@](C[C@@H]2CCOC2)(c2ccccc2)C(=O)N1Cc1ccc(C(F)(F)F)c(C(=O)N2Cc3nccnc3C2)c1 [Compound 70, (5R)-3-[3-(5,7-dihydro-6H-pyrrolo[3,4-b]pyrazin-6-ylcarbonyl)-4-(trifluoromethyl)-benzyl]-2-imino-5-phenyl-5-[(3R)-tetrahydrofuran-3-ylmethyl]imidazolidin-4-one] | 8.89 |
| N=C1N[C@](CCCC(F)(F)F)(c2ccc(F)cc2)C(=O)N1Cc1ccc(C(F)(F)F)c(C(=O)N2Cc3cnc(-c4ccc5cnccc5c4)nc3C2)c1 [Compound 55, (5R)-5-(4-fluorophenyl)-2-imino-3-{3-[(2-isoquinolin-6-yl-5,7-dihydro-6H-pyrrolo[3,4-d]pyrimidin-6-yl)carbonyl]-4-(trifluoromethyl)-benzyl}-5-(4,4,4-trifluorobutyl)-imidazolidin-4-one] | 5.99 |
| N=C1NC(c2ccccc2)(c2ccccc2)C(=O)N1Cc1cccc(C(=O)N2CCN(c3ccc(F)cc3)CC2)c1 [Compound 359, 3-(3-{[4-(4-fluorophenyl)piperazin-1-yl]carbonyl}benzyl)-2-imino-5,5-diphenylimidazolidin-4-one] | 93.9 |
| N=C1NC(c2ccc(F)cc2)(c2cccc(C(N)=O)c2)C(=O)N1Cc1cccc(C(=O)N2Cc3ccccc3C2)c1 (stereo not shown) [Compound 294, 3-{1-[3-(1,3-dihydro-2H-isoindol-2-ylcarbonyl)benzyl]-4-(4-fluorophenyl)-2-imino-5-oxoimidazolidin-4-yl}benzamide] | 39.8 |
